# Source: patent US20240208955A1 (RESEARCH TRIANGLE INSTITUTE, priority 2021, published 2024)
# Read-outs that look alike come from different tables or passages of the source.
# Key:
# [1] = target: T1, human RXFP3 (Homo sapiens, UniProt Q9NSD7); experiment: RXFP3 cAMP accumulation assay (inhibition of relaxin-3 activity) in stable CHO human RXFP3 cells
# T1 sequence (Q9NSD7 1-469): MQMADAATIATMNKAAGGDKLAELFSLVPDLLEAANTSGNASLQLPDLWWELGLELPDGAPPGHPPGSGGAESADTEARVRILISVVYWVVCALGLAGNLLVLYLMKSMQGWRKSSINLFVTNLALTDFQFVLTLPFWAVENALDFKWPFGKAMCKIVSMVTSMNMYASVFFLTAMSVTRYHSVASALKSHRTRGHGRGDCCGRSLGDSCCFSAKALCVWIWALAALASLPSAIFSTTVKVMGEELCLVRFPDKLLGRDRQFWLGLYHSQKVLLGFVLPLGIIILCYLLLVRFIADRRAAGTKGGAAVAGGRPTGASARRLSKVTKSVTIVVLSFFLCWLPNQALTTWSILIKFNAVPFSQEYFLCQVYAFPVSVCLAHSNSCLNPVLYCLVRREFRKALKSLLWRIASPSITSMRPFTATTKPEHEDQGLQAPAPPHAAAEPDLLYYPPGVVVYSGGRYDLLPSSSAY
# Protocol: The assay is based on the competition between a europium chelate-labeled cAMP tracer and unlabeled cAMP produced by cells. […] CHO human RXFP3 cells were cultured in F12 media supplemented with 10% FBS, 100 units/mL penicillin, 100 μg/mL streptomycin, and 400 μg/mL geneticin. Stimulation buffer containing 1×HBSS, 5 mM HEPES (pH 7.4), 0.1% BSA stabilizer, and 0.5 mM IBMX was prepared. A concentration response curve of each test compound was prepared at 4 times the desired final concentration in 4% DMSO/stimulation buffer, and 5 μL was added to the assay plate. […] Forskolin (1 μM) was prepared at 4 times the desired concentration in stimulation buffer, and 5 μL was added to the assay plate. Cells were lifted from flasks with versene and spun at 270 g for 5 min. The cell pellet was resuspended in stimulation buffer and 5000 cells (5 μL) were added to each well. After incubating for 30 min at room temperature, Eu cAMP tracer and uLIGHT-anticAMP working solutions were added per the manufacturer's instructions.
# [2] = target: T2, RXFP1 (Homo sapiens, UniProt Q9HBX9); experiment: Activity at RXFP1 (selectivity); format: cell-based; settings: all concentrations tested up to 30 μM
# T2 sequence (Q9HBX9 1-757): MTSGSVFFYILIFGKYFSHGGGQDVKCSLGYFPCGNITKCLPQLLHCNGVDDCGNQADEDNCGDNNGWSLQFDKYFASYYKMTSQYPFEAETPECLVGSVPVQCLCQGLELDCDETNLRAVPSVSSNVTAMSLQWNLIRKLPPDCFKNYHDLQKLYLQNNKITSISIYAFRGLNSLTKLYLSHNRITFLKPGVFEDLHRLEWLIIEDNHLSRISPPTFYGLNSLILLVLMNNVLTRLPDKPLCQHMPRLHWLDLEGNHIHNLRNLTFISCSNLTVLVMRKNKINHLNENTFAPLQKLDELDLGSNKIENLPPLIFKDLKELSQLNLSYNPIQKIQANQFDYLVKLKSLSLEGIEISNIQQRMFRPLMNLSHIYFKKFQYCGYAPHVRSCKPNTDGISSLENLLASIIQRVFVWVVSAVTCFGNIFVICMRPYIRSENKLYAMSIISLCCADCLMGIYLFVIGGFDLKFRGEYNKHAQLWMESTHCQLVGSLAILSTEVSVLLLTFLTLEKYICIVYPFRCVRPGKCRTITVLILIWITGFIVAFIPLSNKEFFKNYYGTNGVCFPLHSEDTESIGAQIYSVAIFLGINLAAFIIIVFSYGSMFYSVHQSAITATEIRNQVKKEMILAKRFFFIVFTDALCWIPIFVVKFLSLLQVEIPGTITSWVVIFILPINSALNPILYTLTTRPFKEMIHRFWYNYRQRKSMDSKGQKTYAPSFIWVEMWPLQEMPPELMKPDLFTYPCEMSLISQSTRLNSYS
# From the text: It is believed that these compounds represent the first series of small molecule RXFP3 antagonists to be described.
# [3] = IC50 (functional RXFP3 antagonist), inhibition of relaxin-3 activity, RXFP3-CHO cAMP assay
Compound,IC50 [1] [nM],also measured
"O=C(Nc1ccc(-c2nc(-c3ccccc3)no2)cc1)C1CC(=O)N(Cc2cccnc2)C1 (stereo not shown) [RLX-16, 5-Oxo-N-[4-(3-phenyl-1,2,4-oxadiazol-5-yl)phenyl]-1-[(pyridin-3-yl)methyl]-pyrrolidine-3-carboxamide]",6610 ± 909,–
"COc1ccc(-c2noc(-c3ccc(NC(=O)C4CC(=O)N(Cc5cccnc5)C4)cc3)n2)cc1 (stereo not shown) [RLX-22, N-{4-[3-(4-Methoxyphenyl)-1,2,4-oxadiazol-5-yl]phenyl}-5-oxo-1-[(pyridin-3-yl)methyl]-pyrrolidine-3-carboxamide]",–,"IC50 (nM) ([1]; inhibition of relaxin-3 (0.6 nM) activity, forskolin-stimulated cAMP accumulation, CHO human RXFP3 cells, mean ± SEM of at least three independent experiments in duplicate): Not active"
"Cc1ccc(-c2noc(-c3ccc(NC(=O)C4CC(=O)N(Cc5ccccn5)C4)cc3)n2)cc1 (stereo not shown) [RLX-9, N-{4-[3-(4-Methylphenyl)-1,2,4-oxadiazol-5-yl]phenyl}-5-oxo-1-[(pyridin-2-yl)methyl]-pyrrolidine-3-carboxamide]",4810 ± 682,–
"Cc1ccc(-c2noc(-c3ccc(NC(=O)C4CC(=O)N(Cc5cccc(C)c5)C4)cc3)n2)cc1 (stereo not shown) [RLX-8, 1-[(3-Methylphenyl)methyl]-N-{4-[3-(4-methylphenyl)-1,2,4-oxadiazol-5-yl]phenyl}-5-oxopyrrolidine-3-carboxamide]",> 10000,–
"Cc1cccc(-c2noc(-c3ccc(NC(=O)C4CC(=O)N(Cc5cccnc5)C4)cc3)n2)c1 (stereo not shown) [RLX-17, N-{4-[3-(3-Methylphenyl)-1,2,4-oxadiazol-5-yl]phenyl}-5-oxo-1-[(pyridin-3-yl)methyl]-pyrrolidine-3-carboxamide]",5350 ± 1340,–
"O=C(Nc1ccc(-c2nc(-c3ccc(Cl)cc3)no2)cc1)C1CC(=O)N(Cc2cccnc2)C1 (stereo not shown) [RLX-24, N-{4-[3-(4-Chlorophenyl)-1,2,4-oxadiazol-5-yl]phenyl}-5-oxo-1-[(pyridin-3-yl)methyl]-pyrrolidine-3-carboxamide]",1250 ± 219,"IC50 [1, 3]: 1200 nM"
"O=C(Nc1ccc(-c2nc(-c3ccc(C(F)(F)F)cc3)no2)cc1)C1CC(=O)N(Cc2ccco2)C1 (stereo not shown) [RLX-32, 1-[(Furan-2-yl)methyl]-5-oxo-N-(4-{3-[4-(trifluoromethyl)phenyl]-1,2,4-oxadiazol-5-yl}phenyl)pyrrolidine-3-carboxamide]",6680 ± 349,–
"Cc1ccc(-c2noc(-c3ccc(NC(=O)C4CC(=O)N(C)C4)cc3)n2)cc1 (stereo not shown) [RLX-15, 1-Methyl-N-{4-[3-(4-methylphenyl)-1,2,4-oxadiazol-5-yl]phenyl}-5-oxopyrrolidine-3-carboxamide]",2720 ± 384,–
"O=C(Nc1ccc(-c2nc(-c3ccc(Cl)cc3)no2)cc1)C1CC(=O)N(Cc2ccco2)C1 (stereo not shown) [RLX-33, N-{4-[3-(4-Chlorophenyl)-1,2,4-oxadiazol-5-yl]phenyl}-1-[(furan-2-yl)methyl]-5-oxopyrrolidine-3-carboxamide]",2880 ± 321,"IC50 [1, 3]: 2900 nM; activity at RXFP1 [2]: no activity"
"Cc1ccc(-c2noc(-c3ccc(NC(=O)CCNCc4ccccc4)cc3)n2)cc1 [RLX-39, 3-[Benzylamino]-N-{4-[3-(4-methylphenyl)-1,2,4-oxadiazol-5-yl]phenyl}propanamide]",5590 ± 623,–
"O=C(Nc1ccc(-c2nc(-c3cccc(F)c3)no2)cc1)C1CC(=O)N(Cc2cccnc2)C1 (stereo not shown) [RLX-19, N-{4-[3-(3-Fluorophenyl)-1,2,4-oxadiazol-5-yl]phenyl}-5-oxo-1-(3-pyridinylmethyl) pyrrolidine-3-carboxamide]",1340 ± 226,"IC50 [1, 3]: 1300 nM"
"Cc1ccc(-c2noc(-c3ccc(NC(=O)C4CC(=O)N(CCc5ccccc5)C4)cc3)n2)cc1 (stereo not shown) [RLX-4, N-{4-[3-(4-Methylphenyl)-1,2,4-oxadiazol-5-yl]phenyl}-5-oxo-1-(2-phenylethyl)pyrrolidine-3-carboxamide]",> 10000,–
"O=C(Nc1ccc(-c2nc(-c3ccc(F)cc3)no2)cc1)C1CC(=O)N(Cc2cccnc2)C1 (stereo not shown) [RLX-20, N-{4-[3-(4-Fluorophenyl)-1,2,4-oxadiazol-5-yl]phenyl}-5-oxo-1-[(pyridin-3-yl)methyl]-pyrrolidine-3-carboxamide]",1910 ± 367,–
"O=C(Nc1ccc(-c2nc(-c3ccc(C(F)(F)F)cc3)no2)cc1)C1CC(=O)N(Cc2cccnc2)C1 (stereo not shown) [RLX-21, 5-Oxo-1-[(pyridin-3-yl)methyl]-N-(4-{3-[4-(trifluoromethyl)phenyl]-1,2,4-oxadiazol-5-yl}phenyl)-pyrrolidine-3-carboxamide]",2500 ± 97,–
"Cc1ccc(-c2noc(-c3ccc(NC(=O)C4CC(=O)N(Cc5cccnc5)C4)cc3)n2)cc1 (stereo not shown) [RLX-10, N-{4-[3-(4-Methylphenyl)-1,2,4-oxadiazol-5-yl]phenyl}-5-oxo-1-[(pyridin-3-yl)methyl]-pyrrolidine-3-carboxamide]",2350 ± 248,–
"Cc1ccc(-c2noc(-c3ccc(NC(=O)C4CCN(Cc5ccccc5)C4)cc3)n2)cc1 (stereo not shown) [RLX-37, 1-Benyl-N-{4-[3-(4-methylphenyl)-1,2,4-oxadiazol-5-yl]phenyl}-pyrrolidine-3-carboxamide]",> 10000,–
"O=C(Nc1ccc(-c2nc(-c3ccccc3)no2)cc1)C1CC(=O)N(Cc2ccccc2)C1 (stereo not shown) [RLX-2, 1-Benzyl-N-[4-(3-phenyl-1,2,4-oxadiazol-5-yl)phenyl]-5-oxopyrrolidine-3-carboxamide]",7530 ± 998,–
"O=C(Nc1ccc(-c2nc(-c3ccc(Br)cc3)no2)cc1)C1CC(=O)N(Cc2cccnc2)C1 (stereo not shown) [RLX-25, N-{4-[3-(4-Bromophenyl)-1,2,4-oxadiazol-5-yl]phenyl}-5-oxo-1-[(pyridin-3-yl)methyl]-pyrrolidine-3-carboxamide]",2890 ± 193,–
